Source: US10544143B2, “4-azaindole compounds” (BRISTOL-MYERS SQUIBB COMPANY, priority 2017, dated 2020)
Like-named read-outs stand apart in the source and are kept apart here.

Assays:
human TLR7 = human TLR7 (Homo sapiens (Human), UniProt Q9NYK1); assay: TLR7 inhibition reporter assay (HEK-Blue SEAP); format: cell-based
human TLR8 = human TLR8 (Homo sapiens (Human), UniProt Q9NR97); assay: TLR8 inhibition reporter assay (HEK-Blue SEAP); conditions: read-out: TLR8 IC50;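 also: SEAP driven by IFN-β minimal promoter carrying NF-κB and AP-1 sites, compounds dosed 0.05 nM to 50 µM for 22 h, inhibition scaled between agonist-plus-DMSO and reference-inhibitor wells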
human TLR9 = human TLR9 (Homo sapiens (Human), UniProt Q9NR96); assay: TLR9 inhibition reporter assay (HEK-Blue SEAP); conditions: read-out: TLR9 IC50;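 also: SEAP driven by an IFN-β minimal promoter with NF-κB and AP-1 sites, read after 22 h, compounds dosed 0.05 nM–50 µM, inhibition scaled between agonist plus DMSO and reference-inhibitor wells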
[1] = HEK-Blue cells overexpressing human TLR7, gardiquimod 7.5 μM stimulation, SEAP reporter
[2] = HEK-Blue cells overexpressing human TLR8, R848 15.9 μM stimulation, SEAP reporter
[3] = HEK-Blue cells overexpressing human TLR9, ODN2006 5 nM stimulation, SEAP reporter
[4] = HEK-Blue human TLR7 cells, gardiquimod 7.5 μM
[5] = HEK-Blue human TLR8 cells, R848 15.9 μM
[6] = HEK-Blue human TLR9 cells, ODN2006 5 nM
[7] = HEK-Blue cells overexpressing human TLR7, SEAP reporter, gardiquimod 7.5 μM
[8] = HEK-Blue cells overexpressing human TLR8, SEAP reporter, R848 15.9 μM
[9] = HEK-Blue cells overexpressing human TLR9, SEAP reporter, ODN2006 5 nM

Chain of human TLR9 (Q9NR96 26-1032): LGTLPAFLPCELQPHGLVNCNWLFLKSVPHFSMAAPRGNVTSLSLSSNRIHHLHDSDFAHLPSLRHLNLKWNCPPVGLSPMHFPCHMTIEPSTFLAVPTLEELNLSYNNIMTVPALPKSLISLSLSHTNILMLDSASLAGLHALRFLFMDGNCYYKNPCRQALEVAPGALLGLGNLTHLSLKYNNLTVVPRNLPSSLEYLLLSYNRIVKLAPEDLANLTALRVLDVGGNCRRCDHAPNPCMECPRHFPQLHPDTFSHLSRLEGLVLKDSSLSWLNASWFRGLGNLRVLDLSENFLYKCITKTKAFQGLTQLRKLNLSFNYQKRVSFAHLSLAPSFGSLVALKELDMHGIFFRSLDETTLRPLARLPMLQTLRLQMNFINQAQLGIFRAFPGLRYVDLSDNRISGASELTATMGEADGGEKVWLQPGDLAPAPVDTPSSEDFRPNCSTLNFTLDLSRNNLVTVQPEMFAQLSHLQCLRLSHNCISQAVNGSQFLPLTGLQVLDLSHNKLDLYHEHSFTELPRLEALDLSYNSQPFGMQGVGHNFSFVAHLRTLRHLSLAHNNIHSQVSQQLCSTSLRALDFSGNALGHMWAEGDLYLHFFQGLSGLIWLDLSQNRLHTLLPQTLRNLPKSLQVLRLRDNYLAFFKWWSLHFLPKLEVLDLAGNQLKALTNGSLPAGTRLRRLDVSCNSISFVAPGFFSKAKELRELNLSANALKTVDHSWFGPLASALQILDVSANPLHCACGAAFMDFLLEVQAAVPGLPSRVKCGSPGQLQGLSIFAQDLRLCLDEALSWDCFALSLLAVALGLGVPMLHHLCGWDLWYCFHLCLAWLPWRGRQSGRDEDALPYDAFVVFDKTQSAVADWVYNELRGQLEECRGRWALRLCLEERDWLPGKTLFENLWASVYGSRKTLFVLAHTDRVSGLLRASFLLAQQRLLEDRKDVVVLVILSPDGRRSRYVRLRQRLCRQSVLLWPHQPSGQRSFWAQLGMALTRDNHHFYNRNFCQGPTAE
Chain of human TLR7 (Q9NYK1 27-1049): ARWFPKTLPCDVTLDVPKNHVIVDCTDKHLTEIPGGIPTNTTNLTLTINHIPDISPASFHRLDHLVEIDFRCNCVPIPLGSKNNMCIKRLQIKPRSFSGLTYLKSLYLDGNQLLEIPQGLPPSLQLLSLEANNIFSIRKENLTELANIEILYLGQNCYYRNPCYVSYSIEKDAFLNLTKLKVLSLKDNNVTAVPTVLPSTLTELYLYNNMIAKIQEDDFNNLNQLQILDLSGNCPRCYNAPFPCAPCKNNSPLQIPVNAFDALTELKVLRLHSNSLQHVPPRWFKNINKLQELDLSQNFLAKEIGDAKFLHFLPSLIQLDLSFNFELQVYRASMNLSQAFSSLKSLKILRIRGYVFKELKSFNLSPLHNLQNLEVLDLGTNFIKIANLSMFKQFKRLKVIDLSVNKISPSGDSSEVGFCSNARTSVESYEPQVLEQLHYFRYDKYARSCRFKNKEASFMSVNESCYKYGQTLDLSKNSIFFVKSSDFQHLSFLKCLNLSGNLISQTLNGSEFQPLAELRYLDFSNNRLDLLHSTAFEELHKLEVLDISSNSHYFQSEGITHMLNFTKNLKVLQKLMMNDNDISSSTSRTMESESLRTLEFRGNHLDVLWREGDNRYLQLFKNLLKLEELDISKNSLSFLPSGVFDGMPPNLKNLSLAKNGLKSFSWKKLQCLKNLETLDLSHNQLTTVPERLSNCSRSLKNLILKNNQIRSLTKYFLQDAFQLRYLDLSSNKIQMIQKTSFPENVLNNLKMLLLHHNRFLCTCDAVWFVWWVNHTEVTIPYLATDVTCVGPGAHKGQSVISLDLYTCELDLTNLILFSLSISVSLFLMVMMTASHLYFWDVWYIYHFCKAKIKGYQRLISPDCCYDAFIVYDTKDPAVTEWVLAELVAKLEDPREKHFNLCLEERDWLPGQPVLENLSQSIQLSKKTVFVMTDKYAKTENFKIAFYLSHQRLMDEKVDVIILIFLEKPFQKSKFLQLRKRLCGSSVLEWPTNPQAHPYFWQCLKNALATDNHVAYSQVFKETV
Chain of human TLR8 (Q9NR97 27-1041): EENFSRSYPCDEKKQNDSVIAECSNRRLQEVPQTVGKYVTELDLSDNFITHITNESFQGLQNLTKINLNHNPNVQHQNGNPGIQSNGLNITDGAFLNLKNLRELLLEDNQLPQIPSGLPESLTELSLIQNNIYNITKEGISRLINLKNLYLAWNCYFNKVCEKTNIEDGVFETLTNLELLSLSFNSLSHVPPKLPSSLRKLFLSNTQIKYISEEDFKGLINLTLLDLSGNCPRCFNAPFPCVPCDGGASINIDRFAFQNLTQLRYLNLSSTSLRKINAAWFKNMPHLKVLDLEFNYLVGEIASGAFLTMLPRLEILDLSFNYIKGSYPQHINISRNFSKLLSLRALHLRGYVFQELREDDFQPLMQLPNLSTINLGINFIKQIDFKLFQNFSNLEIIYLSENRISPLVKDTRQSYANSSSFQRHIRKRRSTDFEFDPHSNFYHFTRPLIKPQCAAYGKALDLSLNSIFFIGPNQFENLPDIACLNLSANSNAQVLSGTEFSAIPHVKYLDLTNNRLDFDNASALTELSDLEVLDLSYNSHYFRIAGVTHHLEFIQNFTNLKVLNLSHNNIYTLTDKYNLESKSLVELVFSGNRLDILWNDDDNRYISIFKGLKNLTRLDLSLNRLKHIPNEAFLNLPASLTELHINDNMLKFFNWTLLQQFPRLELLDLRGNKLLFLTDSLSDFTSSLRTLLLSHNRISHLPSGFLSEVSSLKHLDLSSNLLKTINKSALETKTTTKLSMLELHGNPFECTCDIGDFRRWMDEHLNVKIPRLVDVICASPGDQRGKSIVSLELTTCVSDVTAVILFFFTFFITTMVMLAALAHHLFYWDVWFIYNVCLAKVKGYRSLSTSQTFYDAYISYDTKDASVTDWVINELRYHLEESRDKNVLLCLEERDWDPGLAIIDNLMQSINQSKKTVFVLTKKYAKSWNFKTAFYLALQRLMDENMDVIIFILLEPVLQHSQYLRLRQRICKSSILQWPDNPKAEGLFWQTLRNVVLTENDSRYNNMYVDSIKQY

Compound | IC50 (human TLR7; [1]) [nM] | IC50 (human TLR8; [2]) [nM] | IC50 (human TLR9; [3]) [nM] | IC50 (human TLR7; [4]) [nM] | IC50 (human TLR8; [5]) [nM] | IC50 (human TLR9; [6]) [nM] | also measured
COc1cc(-c2[nH]c3ccc(C4CCC(N(C)CC(=O)N(C)C)CC4)nc3c2C(C)C)cn2ncnc12 (stereo not drawn) [Example 226] | 2.7 | 14 | 1790 | – | – | – | –
Cc1c(-c2[nH]c3ccc(N4CCN(CCS(C)(=O)=O)C[C@@H]4C)nc3c2C(C)C)cn2ncnc2c1C [Example 817] | – | – | – | 2.1 | 2.9 | > 50000 | –
Cc1c(-c2[nH]c3ccc(N4CCN(C(=O)CNC5CC5)CC4)nc3c2C(C)C)cn2ncnc2c1C [Example 968] | – | – | – | 1.9 | 0.69 | 16400 | –
Cc1c(-c2[nH]c3ccc(N4CCN[C@H](CO)C4)nc3c2C(C)C)cn2ncnc2c1C [Example 994] | – | – | – | 13 | 3.4 | 11800 | –
Cc1c(-c2[nH]c3ccc(N4CCN(CC(C)(C)O)C[C@@H]4C)nc3c2C(C)C)cn2ncnc2c1C [Example 802] | – | – | – | 3 | 0.65 | 17900 | –
Cc1c(-c2[nH]c3ccc(N4[C@H](C)CN(C(=O)CN(C)C)C[C@H]4C)nc3c2C(C)C)cn2ncnc2c1C [Example 863] | – | – | – | 0.52 | 17 | 6060 | –
Cc1c(-c2[nH]c3ccc(N4C[C@@H](C)N(C(=O)CCN5CCC(F)C5)C[C@@H]4C)nc3c2C(C)C)cn2ncnc2c1C (stereo partly drawn) [Example 909] | – | – | – | 0.54 | 0.91 | 6710 | –
Cc1c(-c2[nH]c3ccc(C4CCC(NC(C)(C)C)CC4)nc3c2C(C)C)cn2ncnc2c1C (stereo not drawn) [Example 1056] | – | – | – | 2.1 | 1.2 | 2990 | –
Cc1c(-c2[nH]c3ccc(N4CCN(C(=O)CNC5CCC5)CC4)nc3c2C(C)C)cn2ncnc2c1C [Example 156] | 1.5 | 0.79 | 6750 | – | – | – | –
Cc1c(-c2[nH]c3ccc(C4CC5(C4)CN(C4CCOCC4)C5)nc3c2C(C)C)cn2ncnc2c1C [Example 1024] | – | – | – | 1.8 | 1.2 | 4540 | –
CC(C)c1c(-c2cn(C)c3ncccc23)[nH]c2ccc(C3CCC(N4CC5(COC5)C4)CC3)nc12 (stereo not drawn) [Example 1036] | – | – | – | 1.3 | 2.7 | 1930 | –
COC1CN(C2CCC(c3ccc4[nH]c(-c5cn6ncnc6c(C)c5C)c(C(C)C)c4n3)CC2)C1 (stereo not drawn) [Example 1045] | – | – | – | 4.8 | 3.6 | 3240 | –
COc1cc(-c2[nH]c3ccc(N4CC5(C4)CN(C(C)C)C5)nc3c2C(C)C)cn2ncnc12 [Example 1020] | – | – | – | 1.8 | 17 | 3860 | –
Cc1c(-c2[nH]c3ccc(N4CCN(C(=O)CCN(C)C)C[C@@H]4C)nc3c2C(C)C)cn2ncnc2c1C [Example 811] | – | – | – | 0.36 | 0.59 | 5600 | –
CNC1CCC(c2ccc3[nH]c(-c4cn(CCS(C)(=O)=O)c5ncccc45)c(C(C)C)c3n2)CC1 (stereo not drawn) [Example 269] | 223 | 88 | 670 | – | – | – | –
Cc1c(-c2[nH]c3ccc(CCC4CN(C5COC5)C4)nc3c2C(C)C)cn2ncnc2c1C [Example 687] | – | – | – | – | – | – | IC50 (human TLR7; [7]): 39 nM; IC50 (human TLR8; [8]): 16 nM; IC50 (human TLR9; [9]): 5770 nM
CCN(CCS(C)(=O)=O)C1CCC(c2nc3c(C(C)C)c(-c4cn5ncnc5c(C)c4C)[nH]c3cc2F)CC1 (stereo not drawn) [Example 511] | – | – | – | – | – | – | IC50 (human TLR7; [7]): 5.8 nM; IC50 (human TLR8; [8]): 4.8 nM; IC50 (human TLR9; [9]): > 50000 nM
Cc1cc(-c2[nH]c3ccc(C4CCN(CC(=O)N(C)C)CC4)nc3c2C(C)C)cn2ncnc12 [Example 533] | – | – | – | – | – | – | IC50 (human TLR7; [7]): 0.5 nM; IC50 (human TLR8; [8]): 3.3 nM; IC50 (human TLR9; [9]): 1460 nM
Cc1c(-c2[nH]c3ccc(C4CCC(N5CC(C)(C)C5)CC4)nc3c2C(C)C)cn2ncnc2c1C (stereo not drawn) [Example 1052] | – | – | – | 8.9 | 17 | 5920 | –
Cc1c(-c2[nH]c3ccc(N4CCN(C(=O)CN5CCC(O)CC5)CC4)nc3c2C(C)C)cn2ncnc2c1C [Example 160] | 1.8 | 1.2 | 10600 | – | – | – | –
COc1cc(-c2[nH]c3ccc(C4CCC(NCc5cnc(C)cn5)CC4)nc3c2C(C)C)cn2ncnc12 (stereo not drawn) [Example 190] | 0.8 | 2.8 | 353 | – | – | – | –
COc1cc(-c2[nH]c3ccc(C4CC(N(C)C(=O)CN(C)C)C4)nc3c2C(C)C)cn2ncnc12 (stereo not drawn) [Example 625] | – | – | – | – | – | – | IC50 (human TLR7; [7]): 0.72 nM; IC50 (human TLR8; [8]): 10 nM; IC50 (human TLR9; [9]): 978 nM
Cc1c(-c2[nH]c3ccc(N4CCN(C5CCOC5)C[C@@H]4C)nc3c2C(C)C)cn2ncnc2c1C (stereo partly drawn) [Example 814] | – | – | – | 1.9 | 2.3 | > 50000 | –
Cc1c(-c2[nH]c3ccc(N4C[C@@H](C)N(C(=O)CCN(C)C(C)(C)C)C[C@@H]4C)nc3c2C(C)C)cn2ncnc2c1C [Example 914] | – | – | – | 0.73 | 0.94 | 6050 | –

Compound | IC50 (human TLR7; [1]) [nM] | IC50 (human TLR8; [2]) [nM] | IC50 (human TLR9; [3]) [nM] | IC50 (human TLR7; [4]) [nM] | IC50 (human TLR8; [5]) [nM] | IC50 (human TLR9; [6]) [nM] | also measured
COc1cc(-c2[nH]c3ccc(C4CCNCC4)nc3c2C(C)C)cn2ncnc12 [Example 520] | – | – | – | – | – | – | IC50 (human TLR7; [7]): 0.8 nM; IC50 (human TLR8; [8]): 7 nM; IC50 (human TLR9; [9]): 285 nM
COc1cc(-c2[nH]c3ccc(N4CCNCC4)nc3c2C(C)C)cn2ncnc12 [Example 89] | 0.51 | 0.59 | 3260 | – | – | – | –
COc1cc(-c2[nH]c3ccc(C4CCC(N(C)CCC#N)CC4)nc3c2C(C)C)cn2ncnc12 (stereo not drawn) [Example 175] | 0.35 | 2 | 926 | – | – | – | –
Cc1c(-c2[nH]c3ccc(C4CNCCN4)nc3c2C(C)C)cn2ncnc2c1C (stereo not drawn) [Example 680, 6-(3-isopropyl-5-(piperazin-2-yl)-1H-pyrrolo[3,2-b]pyridin-2-yl)-7,8-dimethyl-[1,2,4]triazolo[1,5-a]pyridine] | – | – | – | – | – | – | IC50 (human TLR7; [7]): 12 nM; IC50 (human TLR8; [8]): 5.2 nM; IC50 (human TLR9; [9]): 1060 nM
CC(C)c1c(-c2cn(C)c3ncccc23)[nH]c2ccc(N3CC(NCC(=O)N(C)C)C3)nc12 [Example 37] | 1270 | 465 | > 50000 | – | – | – | –
Cc1c(-c2[nH]c3ccc(C4CCC(NCC5(C)COC5)CC4)nc3c2C(C)C)cn2ncnc2c1C (stereo not drawn) [Example 474] | – | – | – | – | – | – | IC50 (human TLR7; [7]): 0.46 nM; IC50 (human TLR8; [8]): 0.43 nM; IC50 (human TLR9; [9]): 1450 nM
Cc1cnc(CNC2CCC(c3ccc4[nH]c(-c5cn(C)c6ncccc56)c(C(C)C)c4n3)CC2)cn1 (stereo not drawn) [Example 205] | 0.42 | 1 | 134 | – | – | – | –
CC(C)c1c(-c2cn(CCS(C)(=O)=O)c3ncccc23)[nH]c2ccc(C3CCC(NCC(=O)N(C)C)CC3)nc12 (stereo not drawn) [Example 261] | 262 | 90 | 381 | – | – | – | –
CC(C)c1c(-c2cn(C)c3ncccc23)[nH]c2ccc(C3CCC(NC4COC4)CC3)nc12 (stereo not drawn) [Example 185] | 38 | 110 | 10300 | – | – | – | –
COc1cc(-c2[nH]c3ccc(CCC4CN(CC(C)(C)O)C4)nc3c2C(C)C)cn2ncnc12 [Example 693] | – | – | – | – | – | – | IC50 (human TLR7; [7]): 6.5 nM; IC50 (human TLR8; [8]): 15 nM; IC50 (human TLR9; [9]): 437 nM
CC(C)c1c(-c2cn(CC#N)c3ncccc23)[nH]c2ccc(C3CCC(NC4CCOCC4)CC3)nc12 (stereo not drawn) [Example 268] | 94 | 32 | 578 | – | – | – | –
COc1ncc(CN(C)C2CCN(c3ccc4[nH]c(-c5cn6ncnc6c(C)c5C)c(C(C)C)c4n3)CC2)cn1 [Example 67] | 0.98 | 0.42 | 963 | – | – | – | –
Cc1c(-c2[nH]c3ccc(C4CCC(NCCS(C)(=O)=O)CC4)nc3c2C(C)C)cn2ncnc2c1C (stereo not drawn) [Example 452] | – | – | – | – | – | – | IC50 (human TLR7; [7]): 2.7 nM; IC50 (human TLR8; [8]): 4.4 nM; IC50 (human TLR9; [9]): 3090 nM
Cc1c(-c2[nH]c3ccc(C4CCN(CC(C)(C)O)CC4)nc3c2C(C)C)cn(C)c(=O)c1C [Example 546] | – | – | – | – | – | – | IC50 (human TLR7; [7]): 9.5 nM; IC50 (human TLR8; [8]): 1.6 nM; IC50 (human TLR9; [9]): 1380 nM
Cc1c(-c2[nH]c3ccc(N4CCN(C(=O)CN(CCO)C(C)(C)C)C[C@H]4C)nc3c2C(C)C)cn2ncnc2c1C [Example 953] | – | – | – | 0.92 | 5.3 | 12000 | –
COc1cc(-c2[nH]c3ccc(C4CCC(N(C)CC(N)=O)CC4)nc3c2C(C)C)cn2ncnc12 (stereo not drawn) [Example 225] | 4 | 35 | 3360 | – | – | – | –
COc1cc(-c2[nH]c3ccc(C4CN(C(=O)CCN(C)C)CCO4)nc3c2C(C)C)cn2ncnc12 (stereo not drawn) [Example 672] | – | – | – | – | – | – | IC50 (human TLR7; [7]): 4.7 nM; IC50 (human TLR8; [8]): 90 nM; IC50 (human TLR9; [9]): 6240 nM
Cc1c(-c2[nH]c3ccc(N4C5CNCC4COC5)nc3c2C(C)C)cn2ncnc2c1C [Example 972] | – | – | – | 3.3 | 3.1 | 6920 | –
COc1cc(-c2[nH]c3ccc(OC4CN(C5CCOCC5)C4)nc3c2C(C)C)cn2ncnc12 [Example 595, 6-(3-isopropyl-5-((1-(tetrahydro-2H-pyran-4-yl)azetidin-3-yl)oxy)-1H-pyrrolo[3,2-b]pyridin-2-yl)-8-methoxy-[1,2,4]triazolo[1,5-a]pyridine] | – | – | – | – | – | – | IC50 (human TLR7; [7]): 122 nM; IC50 (human TLR8; [8]): > 3120 nM; IC50 (human TLR9; [9]): 10900 nM
Cc1c(-c2[nH]c3ccc(N4CCN(CCN5CCOCC5)C(=O)C4)nc3c2C(C)C)cn2ncnc2c1C [Example 154] | 1920 | 600 | > 50000 | – | – | – | –
CNC(=O)CCN1CCN(c2ccc3[nH]c(-c4cn5ncnc5c(C)c4C)c(C(C)C)c3n2)[C@@H](C)C1 [Example 818] | – | – | – | 0.78 | 0.43 | 12800 | –
CCN(C)C1CCC(c2nc3c(C(C)C)c(-c4cc(OC)c5ncnn5c4)[nH]c3cc2C)CC1 (stereo not drawn) [Example 313] | 0.21 | 7 | 1200 | – | – | – | –
Cc1c(-c2[nH]c3ccc(N4CCNC[C@@H]4C(C)C)nc3c2C(C)C)cn2ncnc2c1C [Example 992] | – | – | – | 0.66 | 0.72 | 6310 | –
